Assay results taken from publication PMC9490236, “Accurate de novo design of membrane-traversing macrocycles” (Cell, 2022).
Where a SMILES comes first, the peptide text is derived from it. [ ]: non-standard residue; d: D form. NMeF = CN[C@@H](Cc1ccccc1)C(=O)O; dNMeF = CN[C@H](Cc1ccccc1)C(=O)O; NMeL = CN[C@@H](CC(C)C)C(=O)O; dNMeL = CN[C@H](CC(C)C)C(=O)O; NMeV = CN[C@H](C(=O)O)C(C)C; NMeA = CN[C@@H](C)C(=O)O; Sar = CNCC(=O)O

Settings: PAMPA

CC[C@H](C)[C@@H]1NC(=O)[C@@H](CC(C)C)NC(=O)[C@H](CC(C)C)NC(=O)[C@H]2CCCN2C(=O)[C@@H]2CCCN2C(=O)[C@H](C)NC(=O)[C@H](Cc2ccccc2)N(C)C(=O)[C@@H](C(C)C)NC(=O)[C@H](Cc2ccccc2)N(C)C(=O)[C@@H](Cc2ccccc2)N(C)C1=O [Design D10.51, ILE *DPHE *PHE DVAL *PHE ALA PRO DPRO LEU DLEU] (cyclo(AP[dP]L[dL]I[dNMeF][NMeF][dV][NMeF]))
BQL: PAMPA_Papp_Avg | PAMPA_R1 | PAMPA_R3

CC[C@H](C)[C@@H]1NC(=O)[C@@H]2CCCN2C(=O)[C@H](C)NC(=O)[C@@H](Cc2ccccc2)N(C)C(=O)[C@H](C)NC(=O)[C@@H]2CCCN2C(=O)[C@@H](Cc2ccccc2)N(C)C(=O)[C@H](Cc2ccccc2)N(C)C(=O)[C@H](CC(C)C)N(C)C(=O)[C@@H](C(C)C)NC1=O [Design D10.52, ILE DVAL *LEU *PHE *DPHE PRO ALA *DPHE ALA PRO] (cyclo(API[dV][NMeL][NMeF][dNMeF]PA[dNMeF]))
BQL: PAMPA_Papp_Avg | PAMPA_R1 | PAMPA_R3

CC(C)C[C@@H]1C(=O)N[C@H](C(C)C)C(=O)N[C@@H](C)C(=O)N2CCC[C@H]2C(=O)N2CCC[C@H]2C(=O)N[C@@H](C)C(=O)N2CCC[C@@H]2C(=O)N[C@@H](Cc2ccccc2)C(=O)N2CCC[C@H]2C(=O)N[C@@H](C(C)C)C(=O)N1C [Design D10.53, ALA DPRO PHE PRO VAL *DLEU DVAL ALA PRO PRO] (cyclo(APPA[dP]FPV[dNMeL][dV]))
BQL: PAMPA_Papp_Avg | PAMPA_R1 | PAMPA_R3

CC(C)C[C@@H]1NC(=O)[C@@H](Cc2ccccc2)NC(=O)[C@@H]2CCCN2C(=O)[C@H]2CCCN2C(=O)[C@@H]2CCCN2C(=O)[C@H](C)NC(=O)[C@H](Cc2ccccc2)N(C)C(=O)[C@H]2CCCN2C(=O)[C@@H](CC(C)C)NC(=O)[C@@H](C(C)C)NC1=O [Design D10.54, DVAL DLEU DPRO *PHE ALA PRO DPRO PRO DPHE LEU] (cyclo([dF]L[dV][dL][dP][NMeF]AP[dP]P))
BQL: PAMPA_Papp_Avg | PAMPA_R1 | PAMPA_R3

CC[C@H](C)[C@@H]1NC(=O)[C@H](C)NC(=O)[C@@H](CC(C)C)NC(=O)[C@H](CC(C)C)N(C)C(=O)[C@H](CC(C)C)NC(=O)[C@@H](Cc2ccccc2)N(C)C(=O)[C@@H]2CCCN2C(=O)[C@H]([C@@H](C)CC)NC(=O)[C@H](Cc2ccccc2)N(C)C(=O)[C@@H](CC(C)C)NC1=O [Design D10.55, DLEU ALA ILE DLEU *PHE ILE PRO *DPHE LEU *LEU] (cyclo(AI[dL][NMeF]IP[dNMeF]L[NMeL][dL]))
BQL: PAMPA_Papp_Avg | PAMPA_R1 | PAMPA_R3

CC(C)C[C@H]1C(=O)N[C@@H](C)C(=O)N(C)CC(=O)N2CCC[C@@H]2C(=O)N(C)[C@@H](C(C)C)C(=O)N[C@@H](C(C)C)C(=O)N2CCC[C@H]2C(=O)N2CCC[C@@H]2C(=O)N[C@@H](C)C(=O)N[C@H](C(C)C)C(=O)N1C [Design D10.66, PRO DPRO ALA DVAL *LEU ALA *GLY DPRO *VAL VAL] (cyclo(A[Sar][dP][NMeV]VP[dP]A[dV][NMeL]))
BQL: PAMPA_Papp_Avg | PAMPA_R1 | PAMPA_R3

CC(C)C[C@@H]1NC(=O)[C@H](CC(C)C)NC(=O)[C@H](C(C)C)NC(=O)[C@H](C)NC(=O)[C@@H]2CCCN2C(=O)[C@H]2CCCN2C(=O)[C@@H]2CCCN2C(=O)[C@H](C)N(C)C(=O)[C@@H](CC(C)C)N(C)C(=O)[C@@H]2CCCN2C(=O)[C@H](Cc2ccccc2)NC1=O [Design D11.7, PHE PRO *DLEU *ALA PRO DPRO PRO ALA VAL LEU LEU] (cyclo(AVLLFP[dNMeL][NMeA]P[dP]P))
BQL: PAMPA_Papp_Avg | PAMPA_R1 | PAMPA_R3
